From US11072632B2, “Inhibitors of 17β-HSD1, 17β-HSD3 and 17β-HSD10” (UNIVERSITÉ LAVAL, priority 2011, dated 2021)
Read-outs that look alike come from different tables or passages of the source.

Tests used:
[1] = target: T1, 17β-HSD3 (Homo sapiens, UniProt P37058); assay: Inhibition of 17β-HSD3 in homogenated HEK-293 cells; type: biochemical
T1 construct: expressed in transfected cells; host or cells: HEK-293 (homogenate)
T1 sequence (P37058 1-310): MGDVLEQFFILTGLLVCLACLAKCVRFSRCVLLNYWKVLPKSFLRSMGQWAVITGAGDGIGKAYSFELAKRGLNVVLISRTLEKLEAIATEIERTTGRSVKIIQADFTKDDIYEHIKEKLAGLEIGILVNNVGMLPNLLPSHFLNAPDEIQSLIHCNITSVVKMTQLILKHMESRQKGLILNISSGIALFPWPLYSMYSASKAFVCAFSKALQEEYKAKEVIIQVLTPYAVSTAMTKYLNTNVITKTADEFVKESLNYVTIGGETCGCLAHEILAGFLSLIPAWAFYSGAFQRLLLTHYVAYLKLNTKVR

[2] = target: T1, 17β-HSD3; assay: Inhibition of 17β-HSD3 in intact HEK-293 cells; type: cell-based
[3] = target: T2, 17β-HSD10 (Homo sapiens, UniProt Q99714); assay: Inhibition of 17β-HSD10 in stably transfected HEK-293 whole cells (E2 into E1); type: cell-based
T2 construct: expressed in transfected cells
T2 sequence (Q99714 1-261): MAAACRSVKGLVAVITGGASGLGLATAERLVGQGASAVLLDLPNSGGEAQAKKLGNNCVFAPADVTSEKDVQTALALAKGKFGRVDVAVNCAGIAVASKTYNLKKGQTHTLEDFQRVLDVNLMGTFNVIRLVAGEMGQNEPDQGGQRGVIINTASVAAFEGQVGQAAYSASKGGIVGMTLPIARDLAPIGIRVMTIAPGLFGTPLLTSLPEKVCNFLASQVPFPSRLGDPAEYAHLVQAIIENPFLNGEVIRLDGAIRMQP

[4] = target: T3, 17β-HSD1 (Homo sapiens, UniProt P14061); assay: Inhibition of 17β-HSD1 in T-47D intact cells (E1 into E2); type: cell-based; conditions: T47D; for inhibition at 1 µM: read-out: Inhibition (1 μM)
T3 construct: endogenous in cells; host or cells: T-47D
T3 sequence (P14061 1-328): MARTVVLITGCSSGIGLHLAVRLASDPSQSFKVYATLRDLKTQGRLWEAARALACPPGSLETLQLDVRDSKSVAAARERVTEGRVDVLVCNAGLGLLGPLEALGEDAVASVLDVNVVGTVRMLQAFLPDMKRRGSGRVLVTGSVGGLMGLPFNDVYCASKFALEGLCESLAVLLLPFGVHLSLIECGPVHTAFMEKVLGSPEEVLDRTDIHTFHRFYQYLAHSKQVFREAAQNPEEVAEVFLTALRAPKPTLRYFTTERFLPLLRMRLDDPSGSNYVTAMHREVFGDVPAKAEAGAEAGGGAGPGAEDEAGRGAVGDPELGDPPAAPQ
Protocol: T-47D cells were seeded in a 24-well plate (3000 cells/well) in medium supplemented with insulin (50 ng/mL) and 5% dextran-coated charcoal treated FBS rather than 10% FBS to remove remaining hormones. […] Each inhibitor was assessed in triplicate. After incubation, the culture medium was removed and labelled steroids (E1 and E2) extracted with 1 mL of diethyl ether. The organic phases were separated and evaporated to dryness using nitrogen. Residues were dissolved in dichloromethane and dropped on silica gel thin layer chromatography plates (EMD Chemicals Inc., Gibbstown, N.J., USA) and eluted with a toluene/acetone (4:1) solvent system. Substrate [^14C]-E1 and metabolite [^14C]-E2 were identified by comparison with reference steroids and quantified using a Storm 860 system (Molecular Dynamics, Sunnyvale, Calif., USA).
T-47D cells were seeded in a 24-well plate (3000 cells/well) in 990 μL of medium supplemented with insulin (50 ng/mL) and 5% dextran-coated charcoal-treated FBS, which was used rather than untreated 10% FBS, to remove the remaining steroid hormones. […] The final concentration of ethanol in the well was adjusted to 0.1%. Additionally, 5 μL of a solution of [^14C]-estrone (American Radiolabeled Chemicals, Inc., St. Louis, Mo., USA) was added to obtain a final concentration of 60 nM. […] After incubation, the culture medium was removed and labeled steroids (E1 and E2) were extracted with 1 mL of diethyl ether. The organic phases were evaporated to dryness with nitrogen. Residues were dissolved in dichloromethane and dropped on silica gel thin layer chromatography plates (EMD Chemicals Inc., Gibbstown, N.J., USA) and eluted with toluene/acetone (4:1) as solvent system. Substrate [^14C]-E1 and metabolite [^14C]-E2 were identified by comparison with reference steroids (E1 and E2) and quantified using the Storm 860 system (Molecular Dynamics, Sunnyvale, Calif., USA).

[5] = Table 2 (17β-HSD1), [14C]-E1 60 nM, T-47D intact cells, 0.1 μM, read-out: Inhibition (0.1 μM)
[6] = Table 2 (17β-HSD1), [14C]-E1 60 nM, T-47D intact cells, 1 μM

In the case of `CC1CN(C[C@@]2(O)CC[C@@]3(C)[C@@H](CC[C@@H]4[C@@H]3CC[C@]3(C)C(=O)CC[C@@H]43)C2)C(C)CN1Cc1ccc(C(F)(F)F)cc1` (stereo partly drawn) [Compound 11c, (3α,5α)-3-({(2ξ,5ξ)-2,5-dimethyl-4-[4-(trifluoromethyl)benzyl]piperazin-1-yl}methyl)-3-hydroxyandrostan-17-one], the “Homo (%) (0.01 μM)” value ([1]; Table 3, 0.01 μM) is reported as 14%, the “Homo (%) (0.1 μM)” value ([1]; Table 3, 0.1 μM) is reported as 87% and the “Intact cells (%) (0.1 μM)” value ([2]; Table 3, 0.1 μM) is reported as 36%. For the same compound, the “Inhibition (%) at 1 μM” value ([3]; [14C]-E2 (1 μM) into [14C]-E1, intact HEK-293 cells, 1 μM) was 24%.

Compound `C[C@]12CC[C@](O)(CN3CCN(S(=O)(=O)c4ccc(C(F)(F)F)cc4)CC3)C[C@@H]1CC[C@@H]1[C@@H]2CC[C@]2(C)C(=O)CC[C@@H]12` [Compound 14c, (3α,5α)-3-hydroxy-3-[(4-{[4-(trifluoromethyl)phenyl]sulfonyl}-piperazin-1-yl)methyl]androstan-17-one] has an inhibition at 0.01 µM ([1]; read-out: Homo (%) (0.01 μM), Table 3, 0.01 μM) of 21%, an inhibition at 0.1 µM ([1]; read-out: Homo (%) (0.1 μM), Table 3, 0.1 μM) of 78% and an inhibition at 0.1 µM ([2]; HEK293, 1 h, read-out: Intact cells (%) (0.1 μM), Table 3, 0.1 μM) of 34%. The inhibition at 1 µM ([3]; HEK293, read-out: Inhibition (%) at 1 μM) was 14%.

Compound `CN(C)Cc1ccc2c(c1)CC[C@@H]1[C@@H]2CC[C@]2(C)[C@@H](O)[C@@H](Cc3cccc(C(N)=O)c3)C[C@@H]12` [Compound 40a, 3-{[(16β,17β)-3-[(dimethylamino)methyl]-17-hydroxyestra-1,3,5(10)-trien-16-yl]methyl}benzamide] has an inhibition at 0.1 µM [4, 5] of 12% and an inhibition at 1 µM [4, 6] of 49%.

In the case of `C[C@]12CC[C@@H]3c4ccc(CCCl)cc4CC[C@H]3[C@@H]1C[C@H](Cc1cccc(C(N)=O)c1)[C@@H]2O` [Compound 9, 3-{[(16β,17β)-3-(2-chloroethyl)-17-hydroxyestra-1(10),2,4-trien-16-yl]methyl}benzamide], the inhibition at 0.1 µM ([4]; read-out: Inhibition (0.1 μM)) is reported as 55%.

`C[C@]12CC[C@@H]3c4ccc(CCI)cc4CC[C@H]3[C@@H]1C[C@H](Cc1cccc(C(N)=O)c1)[C@@H]2O` [Compound 10, 3-{[(16β,17β)-17-hydroxy-3-(2-iodoethyl)estra-1(10),2,4-trien-16-yl]methyl}benzamide] showed an inhibition at 0.1 µM ([4]; read-out: Inhibition (0.1 μM)) of 7%.

In the case of `C[C@]12CC[C@@H]3c4ccc(CCc5ccccc5)cc4CC[C@H]3[C@@H]1C[C@H](Cc1cccc(C(N)=O)c1)[C@@H]2O` [Compound 19, 3-{[(16β,17β)-17-hydroxy-3-(2-phenylethyl)estra-1(10),2,4-trien-16-yl]methyl}benzamide], the inhibition at 0.1 µM ([4]; read-out: Inhibition (0.1 μM)) is reported as 13%.

Compound `C[C@]12CC[C@@H]3c4ccc(CN5CCCC5)cc4CC[C@H]3[C@@H]1C[C@H](Cc1cccc(C(N)=O)c1)[C@@H]2O` [Compound 40c, 3-{[(16β,17β)-17-hydroxy-3-(pyrrolidin-1-ylmethyl)estra-1,3,5(10)-trien-16-yl]methyl}benzamide] has an inhibition at 0.1 µM [4, 5] of 1% and an inhibition at 1 µM [4, 6] of 28%.

Work on `CNC(=O)Cc1ccc2c(c1)CC[C@@H]1[C@@H]2CC[C@]2(C)[C@@H](O)[C@@H](Cc3cccc(C(N)=O)c3)C[C@@H]12` [Compound 32, 3-{[(16β,17β)-17-hydroxy-3-[2-(methylamino)-2-oxoethyl]estra-1(10),2,4-trien-16-yl]methyl}benzamide] yielded an inhibition at 0.1 µM ([4]; read-out: Inhibition (0.1 μM)) of 5% and an inhibition at 1 µM [4] of 15%.

In the case of `C[C@]12CC[C@@H]3c4ccc(CBr)cc4CC[C@H]3[C@@H]1C[C@H](Cc1cccc(C(N)=O)c1)[C@@H]2O` [III, 3-{[(16β,17β)-3-(bromomethyl)-17-hydroxyestra-1,3,5(10)-trien-16-yl]methyl}benzamide], the inhibition at 0.01 µM ([4]; read-out: Inhibition % (0.01 μM)) is reported as 20%, the inhibition at 0.1 µM ([4]; read-out: Inhibition % (0.1 μM)) is reported as 36% and the inhibition at 0.1 µM ([4]; read-out: Inhibition (0.1 μM)) is reported as 19%. It also gave an inhibition at 1 µM [4] of 66%.

`C[C@]12CC[C@@H]3c4ccc(C(=O)N5CCCC5)cc4CC[C@H]3[C@@H]1C[C@H](Cc1cccc(C(N)=O)c1)[C@@H]2O` [Compound 41c, 3-{[(16β,17β)-17-hydroxy-3-(pyrrolidin-1-ylcarbonyl)estra-1,3,5(10)-trien-16-yl]methyl}benzamide] was tested, and the inhibition at 0.1 µM ([4]; read-out: Inhibition (0.1 μM)) was 0% and the inhibition at 1 µM [4] was 13%.

Compound `C[C@]12CC[C@@H]3c4ccc(CCCO)cc4CC[C@H]3[C@@H]1C[C@H](Cc1cccc(C(N)=O)c1)[C@@H]2O` [Compound 24, 3-{[(16β,17β)-17-hydroxy-3-(3-hydroxypropyl)estra-1(10),2,4-trien-16-yl]methyl}benzamide] has an inhibition at 0.1 µM [4, 5] of 16%.

`C[C@]12CC[C@@H]3c4ccc(OCCBr)cc4CC[C@H]3[C@@H]1C[C@H](Cc1cccc(C(N)=O)c1)[C@@H]2O` [Compound 15, 3-{[(16β,17β)-3-(2-bromoethoxy)-17-hydroxyestra-1(10),2,4-trien-16-yl]methyl}benzamide] gave an inhibition at 0.1 µM [4, 5] of 39% and an inhibition at 1 µM [4, 6] of 81%.

In the case of `C[C@]12CC[C@@H]3c4ccc(CCCBr)cc4CC[C@H]3[C@@H]1C[C@H](Cc1cccc(C(N)=O)c1)[C@@H]2O` [Compound 25, 3-{[(16β,17β)-3-(3-bromopropyl)-17-hydroxyestra-1(10),2,4-trien-16-yl]methyl}benzamide], the inhibition at 0.1 µM ([4]; read-out: Inhibition (0.1 μM)) is reported as 37% and the inhibition at 1 µM [4] is reported as 82%.

`C[C@]12CC[C@@]3(C[C@@H]1CC[C@@H]1[C@@H]2CC[C@]2(C)C(=O)CC[C@@H]12)CN(CCBr)C(=O)O3` [Compound 22, (3R,5S,8R,9S,10S,13S,14S)-3′-(2-bromoethyl)-10,13-dimethyltetrahydrodecahydro-2′H-spiro[cyclopenta[α]phenanthrene-3,5′-[1,3]oxazolidine]-2′,17(2H)-dione] was tested, and the inhibition at 0.01 µM ([1]; read-out: Homo (%) (0.01 μM), Table 4, 0.01 μM) was 17%, the inhibition at 1 µM ([1]; read-out: Homo (%) (1.0 μM), Table 4, 1.0 μM) was 93% and the inhibition at 0.1 µM ([2]; HEK293, 1 h, read-out: Intact cells (%) (0.1 μM), Table 4, 0.1 μM) was 31%.

`CN(Cc1ccccc1)C[C@@]1(O)CC[C@@]2(C)[C@@H](CC[C@@H]3[C@@H]2CC[C@]2(C)C(=O)CC[C@@H]32)C1` [Compound 7b, (3α,5α)-3-{[benzyl(methyl)amino]methyl}-3-hydroxyandrostan-17-one] gave an inhibition at 0.1 µM ([1]; Table 2 (17β-HSD3), 0.1 μM, read-out: Homo (%) (0.1 μM)) of 79%, an inhibition at 1 µM ([1]; Table 2 (17β-HSD3), 1 μM, read-out: Homo (%) (1 μM)) of 89% and an inhibition at 0.01 µM ([1]; Table 2 (17β-HSD3), [14C]-Δ4-dione 50 nM into [14C]-T, 0.01 μM, read-out: Homo (%) (0.01 μM)) of 28%. The inhibition at 0.1 µM ([2]; HEK293, 1 h, Table 2 (17β-HSD3), 0.1 μM, read-out: Intact cells (%) (0.1 μM)) was 48% and the inhibition at 1 µM ([2]; HEK293, 1 h, Table 2 (17β-HSD3), 1 μM, read-out: Intact cells (%) (1 μM)) was 92%.
